Experimental data as given in ChEMBL document CHEMBL6092203, “Discovery of Novel PROTAC-Based HPK1 Degraders with High Potency and Selectivity for Cancer Immunotherapy” (J Med Chem, 2024).
Activity calls are given as the source filed them. No cut-off for these calls is given here.

Legend:
[1] = In vivo induction of HPK1 degradation in C57BL/6J mouse spleen at 0.5 mg/kg administered as single dose and measured after 8 to 24 hrs; format: functional; conditions: time 8-24 hrs
[2] = Drug metabolism in human hepatocytes assessed as phase 2 metabolites formation at 10 uM incubated for 120 mins by UHPLC-UV/MS/MS method; format: ADME, cell-based, Hepatocyte; conditions: 2 h
Jurkat = assay: Induction of GLK degradation in human Jurkat cells at 1 to 1000 nM incubated for 24 hrs by Western blotting analysis; format: cell-based; conditions: dose 1-1000 nM
[3] = Metabolic stability in mouse liver microsomes assessed as intrinsic clearance at 1 uM incubated for 45 mins by LC-MS/MS method; format: ADME, Microsome; conditions: read-out: CLH
[4] = Clearance in Sprague-Dawley rat at 2 mg/kg, iv measured upto 24 hrs by LC-MS analysis; conditions: in vivo
Cytochrome P450 2D6 = Cytochrome P450 2D6 (Homo sapiens, UniProt P10635); assay: Inhibition of CYP2D6 in human liver microsomes using dextromethorphan as substrate in presence of NADPH; format: ADME, Microsome
Sequence of Cytochrome P450 2D6 (P10635 whole entry): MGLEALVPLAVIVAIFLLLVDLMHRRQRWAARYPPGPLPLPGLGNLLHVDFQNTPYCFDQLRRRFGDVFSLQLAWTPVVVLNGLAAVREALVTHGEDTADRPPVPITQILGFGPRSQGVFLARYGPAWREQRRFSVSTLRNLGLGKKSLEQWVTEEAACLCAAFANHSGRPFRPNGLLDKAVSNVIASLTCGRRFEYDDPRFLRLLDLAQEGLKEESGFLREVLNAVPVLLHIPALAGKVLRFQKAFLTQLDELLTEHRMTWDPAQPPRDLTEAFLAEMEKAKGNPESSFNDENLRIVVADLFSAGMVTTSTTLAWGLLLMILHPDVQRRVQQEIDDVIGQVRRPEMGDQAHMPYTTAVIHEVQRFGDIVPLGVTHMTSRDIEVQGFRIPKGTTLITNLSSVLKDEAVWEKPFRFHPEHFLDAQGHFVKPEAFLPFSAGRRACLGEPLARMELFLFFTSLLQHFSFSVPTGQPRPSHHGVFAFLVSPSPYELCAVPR

MC-38 [5] = assay: Synergistic antitumor activity against mouse MC38 cells implanted in C57BL/6J mouse assessed as tumor weight inhibition rate at 0.5 mg/kg, po bid measured after 4 weeks in presence of 5 mg/kg anti-PD1 and measured twice a week; format: functional; parameters: scale not given: the % may be the effect or the level left
in vitro = conditions: mouse, hepatocytes
MC-38 [6] = assay: Antitumor activity against mouse MC38 cells implanted in C57BL/6J mouse assessed as tumor growth inhibition at 1 mg/kg, po BID measured after 4 weeks; format: functional; conditions: MC-38, 672 h, read-out: TGI
in vivo [7] = conditions: female, Sprague-Dawley, rat, po, 100 mg/kg
[8] = Drug metabolism in mouse hepatocytes assessed as phase 1 metabolites formation at 10 uM incubated for 120 mins by UHPLC-UV/MS/MS method; format: ADME, cell-based, Hepatocyte; conditions: 2 h
[9] = Tmax in female Sprague-Dawley rat at 2 mg/kg/day, po measured at day 1; format: ADME, organism-based; conditions: in vivo, time 1 day
MC-38 [10] = assay: Antitumor activity against mouse MC38 cells implanted in C57BL/6J mouse assessed as tumor weight inhibition rate at 100 mg/kg, po QD administered for 4 weeks; format: functional; parameters: scale not given: the % may be the effect or the level left
[11] = Volume of distribution at steady state in C57BL/6J mouse at 2 mg/kg, iv measured upto 24 hrs by LC-MS analysis; format: ADME, organism-based; conditions: in vivo, read-out: Vdss
[12] = Clearance in mouse at 2 mg/kg, iv measured upto 24 hrs by LC-MS analysis; format: ADME, organism-based; conditions: in vivo
[13] = Drug metabolism in monkey hepatocytes assessed as phase 2 metabolites formation at 10 uM incubated for 120 mins by UHPLC-UV/MS/MS method; format: ADME, cell-based, Macaca mulatta, Hepatocyte; conditions: rhesus monkey, 2 h
[14] = Drug distribution in rat kidney measured after 0.5 to 6 hrs; format: ADME, tissue-based; conditions: in vivo, time 0.5-6 hrs
MC-38 [15] = assay: Synergistic antitumor activity against mouse MC38 cells implanted in C57BL/6J mouse assessed as reduction in tumor weight at 100 mg/kg, po QD administered for 3 to 4 weeks in presence of 5 mg/kg anti-PD1 and measured twice a week (reference value: 1.79 +/- 0.24 g); format: functional; conditions: time 3-4 weeks
[16] = target: T1, Protein cereblon/Mitogen-activated protein kinase kinase kinase kinase 1 (Homo sapiens, UniProt Q92918+Q96SW2); assay: PROTAC activity at CRBN/HPK1 in human Jurkat cells assessed as HPK1 degradation at 1 uM after 4 hrs by Western blotting analysis; format: cell-based
T1 sequence (Q92918 whole entry, looked up): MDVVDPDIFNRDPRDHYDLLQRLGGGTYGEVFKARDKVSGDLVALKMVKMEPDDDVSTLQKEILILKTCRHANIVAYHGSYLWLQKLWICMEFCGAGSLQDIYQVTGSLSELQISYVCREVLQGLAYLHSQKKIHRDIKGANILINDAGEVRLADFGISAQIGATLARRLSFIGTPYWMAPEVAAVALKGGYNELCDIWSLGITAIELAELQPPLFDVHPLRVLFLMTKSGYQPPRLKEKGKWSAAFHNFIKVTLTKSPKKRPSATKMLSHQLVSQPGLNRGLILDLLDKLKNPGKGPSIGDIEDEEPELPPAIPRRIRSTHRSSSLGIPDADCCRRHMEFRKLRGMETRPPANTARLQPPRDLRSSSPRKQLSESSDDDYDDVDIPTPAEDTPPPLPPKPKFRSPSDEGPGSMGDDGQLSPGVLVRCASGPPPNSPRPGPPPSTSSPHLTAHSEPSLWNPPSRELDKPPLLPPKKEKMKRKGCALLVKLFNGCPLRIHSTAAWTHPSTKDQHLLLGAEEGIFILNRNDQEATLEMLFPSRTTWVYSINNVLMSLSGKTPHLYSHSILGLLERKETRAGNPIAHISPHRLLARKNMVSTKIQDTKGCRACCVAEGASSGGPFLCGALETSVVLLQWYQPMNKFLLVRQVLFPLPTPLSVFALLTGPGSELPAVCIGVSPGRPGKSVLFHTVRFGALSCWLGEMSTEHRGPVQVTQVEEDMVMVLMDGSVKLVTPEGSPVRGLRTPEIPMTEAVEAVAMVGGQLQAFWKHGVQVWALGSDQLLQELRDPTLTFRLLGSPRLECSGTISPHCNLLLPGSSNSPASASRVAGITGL
T1 sequence (Q96SW2 whole entry, looked up): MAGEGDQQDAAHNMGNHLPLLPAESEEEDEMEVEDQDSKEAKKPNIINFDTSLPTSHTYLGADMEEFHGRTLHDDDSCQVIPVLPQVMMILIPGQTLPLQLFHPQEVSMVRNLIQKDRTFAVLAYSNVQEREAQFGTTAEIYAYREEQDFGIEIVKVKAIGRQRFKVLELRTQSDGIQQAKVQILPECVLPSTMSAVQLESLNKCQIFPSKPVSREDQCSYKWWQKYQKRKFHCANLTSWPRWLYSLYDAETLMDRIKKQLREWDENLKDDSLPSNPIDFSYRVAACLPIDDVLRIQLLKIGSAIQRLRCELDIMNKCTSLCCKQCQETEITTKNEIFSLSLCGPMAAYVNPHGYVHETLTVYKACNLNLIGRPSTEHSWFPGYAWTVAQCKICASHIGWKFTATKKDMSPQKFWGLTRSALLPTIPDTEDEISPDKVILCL

MC-38 [17] = assay: Antitumor activity against mouse MC38 cells implanted in C57BL/6J mouse assessed as reduction in tumor volume at 1 mg/kg, po BID administered for 3 to 4 weeks (reference value: 1549.22 +/- 217.92 mm3); format: functional; conditions: time 3-4 weeks
[18] = Metabolic stability in monkey liver microsomes assessed as intrinsic clearance at 1 uM incubated for 45 mins by LC-MS/MS method; format: ADME, Macaca mulatta, Microsome; conditions: rhesus monkey, read-out: CLH
Cytochrome P450 3A4 = Cytochrome P450 3A4 (Homo sapiens, UniProt P08684); assay: Inhibition of CYP3A4 in human liver microsomes using midazolam as substrate in presence of NADPH; format: ADME, Microsome
Sequence of Cytochrome P450 3A4 (P08684 whole entry): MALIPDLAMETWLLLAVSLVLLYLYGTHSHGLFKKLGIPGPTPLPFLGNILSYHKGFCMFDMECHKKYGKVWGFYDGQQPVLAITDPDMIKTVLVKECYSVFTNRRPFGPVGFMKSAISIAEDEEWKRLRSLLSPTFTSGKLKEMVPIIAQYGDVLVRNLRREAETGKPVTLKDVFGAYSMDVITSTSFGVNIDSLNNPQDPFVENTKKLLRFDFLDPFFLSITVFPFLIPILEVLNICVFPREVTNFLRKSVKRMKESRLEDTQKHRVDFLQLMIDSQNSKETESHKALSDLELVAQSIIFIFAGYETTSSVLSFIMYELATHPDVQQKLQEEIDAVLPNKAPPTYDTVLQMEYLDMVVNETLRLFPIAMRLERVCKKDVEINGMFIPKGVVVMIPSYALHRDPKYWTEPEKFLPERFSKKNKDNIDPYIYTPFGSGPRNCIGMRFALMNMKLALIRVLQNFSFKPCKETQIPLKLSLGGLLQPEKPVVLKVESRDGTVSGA

[19] = Drug absorption in mouse at 10 to 100 mg/kg, po; format: ADME, organism-based; conditions: in vivo, dose 10-100 mg/kg
[20] = Half-life in Sprague-Dawley rat at 2 mg/kg, iv measured upto 24 hrs by LC-MS analysis; conditions: in vivo
MC-38 [21] = assay: Synergistic antitumor activity against mouse MC38 cells implanted in C57BL/6J mouse assessed as tumor growth inhibition at 0.5 mg/kg, po bid measured after 4 weeks in presence of 5 mg/kg anti-PD1 and measured twice a week; format: functional; conditions: MC-38, 672 h, read-out: TGI
[22] = Initial plasma concentration in Sprague-Dawley rat at 2 mg/kg, iv measured upto 24 hrs by LC-MS analysis; format: ADME, organism-based
[23] = Half-life in C57BL/6J mouse at 10 mg/kg, po measured upto 24 hrs by LC-MS analysis; conditions: in vivo
MC-38 [24] = assay: Antitumor activity against mouse MC38 cells implanted in C57BL/6J mouse assessed as tumor growth inhibition at 0.5 mg/kg, IG BID administered for 3 to 4 weeks; format: functional, organism-based; conditions: time 3-4 weeks
[25] = Toxicity in Sprague-Dawley rat assessed as efficacy dose measured after 14 days; conditions: in vivo, 336 h, time 14 day
[26] = Drug absorption in rat at 10 to 100 mg/kg, po; format: ADME, organism-based; conditions: in vivo, dose 10-100 mg/kg
[27] = target: T1, Protein cereblon/Mitogen-activated protein kinase kinase kinase kinase 1; assay: PROTAC activity at CRBN/HPK1 in human Jurkat cells assessed as HPK1 degradation at 1 uM pretreated with MLN4924 for 4 hrs followed by compound addition and measured after 24 hrs by Western blotting analysis; format: cell-based
Cytochrome P450 2B6 = target: T2, Cytochrome P450 2B6 (Homo sapiens, UniProt P20813); assay: Inhibition of CYP2B6 in human liver microsomes using bupropion as substrate in presence of NADPH; format: ADME, Microsome
T2 sequence (P20813 whole entry): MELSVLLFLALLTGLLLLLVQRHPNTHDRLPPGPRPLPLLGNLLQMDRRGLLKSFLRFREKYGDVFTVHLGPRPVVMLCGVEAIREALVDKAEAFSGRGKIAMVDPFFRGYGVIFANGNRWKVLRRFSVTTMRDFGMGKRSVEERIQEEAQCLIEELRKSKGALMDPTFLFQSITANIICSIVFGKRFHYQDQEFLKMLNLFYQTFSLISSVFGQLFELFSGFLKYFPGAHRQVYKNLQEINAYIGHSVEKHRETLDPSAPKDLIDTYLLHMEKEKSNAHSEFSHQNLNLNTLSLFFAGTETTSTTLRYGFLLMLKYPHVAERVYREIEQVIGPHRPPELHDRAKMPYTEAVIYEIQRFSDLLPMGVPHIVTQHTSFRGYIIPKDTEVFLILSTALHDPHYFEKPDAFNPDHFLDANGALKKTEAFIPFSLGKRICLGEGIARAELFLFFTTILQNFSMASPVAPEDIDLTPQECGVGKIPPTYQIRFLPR

in vivo [28] = conditions: male, Sprague-Dawley, rat, po, 100 mg/kg
[29] = Tmax in female Sprague-Dawley rat at 100 mg/kg/day, po measured at day 1; format: ADME, organism-based; conditions: in vivo, time 1 day

Drug metabolism [2]: metabolite_detected
microsomal CLint at 1 µM [3]: 13.4 µL/min/mg
clearance at 24 h [4]: 4.17 mL/min/kg
IC50 (Cytochrome P450 2D6): > 10 µM
half-life at 1.5 h, 1 µM (in vitro): 7.62 h
Cmax at 24 h (in vivo [7]): 11200 ng/mL
Drug metabolism [8]: metabolite_detected
Tmax [9]: 6 h
Vd [11]: 0.659 L/kg
clearance [12]: 0.598 mL/min/kg
Drug metabolism [13]: metabolite_detected
Drug uptake [14]: Active
Activity [16]: 55.6%
microsomal CLint at 1 µM [18]: 38 µL/min/mg
IC50 (Cytochrome P450 3A4): > 10 µM
Drug absorption [19]: Active
half-life at 24 h [20]: 2.86 h
C0 at 24 h [22]: 3380 ng/mL
half-life at 24 h [23]: 3.44 h
Drug absorption [26]: Active
Activity [27]: inactive
IC50 (Cytochrome P450 2B6): > 10 µM
AUC at 336 h (in vivo [28]): 151 µg·h/mL
Tmax [29]: 8 h
Compound: O=C1CCN(c2cc(C(=O)N3CCC(CC4CCN(c5ccc(-c6cnc7[nH]cc(-c8cnn(CC(F)(F)F)c8)c7n6)cn5)CC4)CC3)ccc2Cl)C(=O)N1
Emax at 0.5 mg/kg [1]: 61.3%
Activity (Jurkat): inactive
Activity (MC-38 [5]): 86.54%
inhibition in vivo at 1 mg/kg (MC-38 [6]): 17.5%
Activity (MC-38 [10]): 48.76%
Activity (MC-38 [15]): 0.3 g
Activity (MC-38 [17]): 1277.79 mm3
inhibition in vivo at 0.5 mg/kg (MC-38 [21]): 91%
Activity (MC-38 [24]): Active; Comparable To 100 Mg/Kg Dd203-1 Treatement Group
Activity [25]: 0.8 mg/kg/day
